# Experimental data from publication PMC10931776, “Modes of Interactions with DNA/HSA Biomolecules and Comparative Cytotoxic Studies of Newly Synthesized Mononuclear Zinc(II) and Heteronuclear Platinum(II)/Zinc(II) Complexes toward Colorectal Cancer Cells” (International Journal of Molecular Sciences, 2024).
# Tests used:
# CT26 cells = experiment: Annexin V FITC / Propidium Iodide apoptosis flow cytometry; assay type: cell-based, mouse; details: CT26, 24 h treatment
# Description: The capacity of the C1 complex to induce apoptotic death in cancer cells was assessed using flow cytometric analysis. This analysis involved treating cells with the C1 complex and subsequently staining them with Annexin V FITC and Propidium Iodide. […] In a similar vein, in a related context, NCI-H460 cancer cells, which are a line of human large-cell lung carcinoma cells, were subjected to treatment with binuclear platinum(II) complexes. These complexes feature 4′-substituted-2,2′:6′,2″-terpyridine ligands and were administered for a duration of 24 h. Following this treatment, there was a significant increase in the proportion of apoptotic cells, correlating strongly with exposure to these specific ligands.
# The evaluation of apoptosis in cells subjected to treatment was conducted employing the Annexin V and Propidium Iodide double staining assay in accordance with the methodology outlined in prior studies. This approach enabled the determination of the percentage of apoptotic cells. In further experiments, cells were fixed and permeabilized using a permeabilization buffer provided by BD Bioscience, Heidelberg, Germany. […] The analysis of these treated cells was carried out using a FACS Calibur flow cytometer (BD Biosciences, San Jose, CA, USA) and the resulting data were meticulously analyzed with FlowJo software (v10.8.2). […]
# [1] = tested on: mouse colorectal carcinoma (CT26); experiment: MTT cytotoxicity assay, CT26; assay type: cell-based; details: 48 h
# Description: (§1) The in vitro cytotoxicity of newly synthesized mono- and heteronuclear platinum(II)/and zinc(II) complexes, featuring a 4,4′,4″-tri-tert-butyl-2,2′:6′,2″-terpyridine ligand (designated as C1–C5), was assessed using MTT assay procedures. This evaluation targeted various cell lines: mouse colorectal carcinoma (CT26), human colorectal carcinoma (HCT116 and SW480), and non-cancerous mouse mesenchymal stem cells (mMSC). These cell lines were exposed to synthesized complexes for 48 h, with concentrations ranging from 1.17 to 150 μM.
# (§2) In our study, various cell lines were cultured, including mouse colorectal carcinoma (CT26), human colorectal carcinoma (HCT116 and SW480) obtained from ATCC, USA, and mouse mesenchymal stem cells (mMSC, Gibco), New York, NY, USA). These cell lines were consistently maintained in complete Dulbecco’s Modified Eagle Medium (DMEM) supplemented with 10% fetal bovine serum (FBS) (Sigma Aldrich, St. Louis, MO, USA), 100 IU/mL penicillin, and 100 μg/mL streptomycin antibiotics (Invitrogen, Carlsbad, CA, USA). The cultures were incubated at 37 °C in a humidified atmosphere of 5% carbon dioxide (CO2). […] The viability and count of the cells were determined using Trypan blue staining, ensuring the accuracy and reliability of the experimental outcomes.
# (§3) The cytotoxic effects of five newly synthesized complexes, alongside cisplatin, were assessed through the MTT assay method, in line with previously established protocols. During the exponential growth phase, cells were collected from culture flasks, counted, and then seeded in 96-well culture plates at a density of 5·10^3 cells per well. Subsequent treatment involved exposing these cells to varying concentrations of the newly synthesized complexes and cisplatin (ranging from 1.17 to 150 μM) for a duration of 48 h, with fresh complete medium serving as the control. The results were quantified relative to the control (untreated cells), providing a comparative measure of cytotoxicity. Additionally, IC50 values, representing the concentration required to inhibit 50% of the cell viability, were calculated using Microsoft Office Excel 2010. Lastly, the data were presented as percentages of viable cells in accordance with the methodology outlined in the referenced study, facilitating a comprehensive understanding of the anticancer potential of these compounds.
# [2] = tested on: mouse mesenchymal stem cells (mMSC); experiment: MTT cytotoxicity assay, mMSC; assay type: cell-based; details: 48 h
# Description: as §1
# In the context of developing low-toxicity drugs, it is imperative to evaluate the antiproliferative activity against normal cells. The in vitro toxicity of the tested complexes toward normal mouse mesenchymal stem cells (mMSC) was examined. […] These findings indicate the possibility of enhanced in vivo tolerance for this complex.
# as §2, §3
# CT-DNA = experiment: Ethidium bromide/CT-DNA fluorescence quenching (EB displacement); assay type: binding; details: EB/CT-DNA 1:1, 5 µM, PBS pH 7.4, room temperature, λex 527 nm, λem 612 nm
# Excerpt: Fluorescent spectroscopy allows the determination of the intercalation potential of compounds. Intercalation involves planar aromatic molecules binding between the base pairs of DNA chains, causing them to elongate. Ethidium bromide (EB) is commonly used as a DNA intercalator and produces high levels of fluorescent emissions at 612 nm when intercalating between DNA strands. However, the addition of compounds that can intercalate between DNA strands and suppress the effects of EB will reduce fluorescent emissions. If a complex is able to replace EB, fluorescence reduction will occur, indicating the complex’s ability to bind intercalatively. Figure 3 and Figures S10–S13 show the results of fluorescence titrations in the presence of intercalator EB, where the emission intensity of a constant CT-DNA/EB solution concentration of 5 µM was monitored with increasing complex concentration up to a ratio of 5.
# To determine whether the complex could displace EB from the CT-DNA-EB complex, the interactions of the complex with CT-DNA were examined in the presence of EB. The CT-DNA-EB solution was formed by combining EB and CT-DNA solutions with a concentration of 5 μM at a pH of 7.4. The impact of the complex binding to the CT-DNA was measured by analyzing the fluorescence emission spectrum after the addition of the examined complexes solution in increasing concentration, Figure 3.
# The binding affinity of the complexes C1–C5 to CT-DNA via intercalation was determined using fluorescence spectroscopy. All measurements were conducted at room temperature in 0.01 M PBS with a pH of 7.4. Fluorescence measurements were performed by adding increasing complex concentrations (0–50 μM) to a CT-DNA and EB solution. Before each measurement, the system was shaken at room temperature. The fluorescence intensity was measured with the wavelength of excitation at 527 nm and the wavelength of emission at 612 nm. The width of the excitation and emission slits (10 nm) and scan rate were maintained at a constant rate. The emission of the solution was recorded in the range of 550 to 750 nm. The Stern–Volmer constants, Ksv, were determined by Equation (2). I0/I = 1 + Ksv[Q](2) [Q] is the concentration of the complex, I0 and I represent emission intensities in the absence and presence of complex, and Ksv is the Stern–Volmer constant obtained from the slope of the plot of I0/I vs. [Q] [25, 26, 27, 28].
# [3] = tested on: human colorectal carcinoma (SW480); experiment: MTT cytotoxicity assay, SW480; assay type: cell-based; details: 48 h
# Description: as §1, §2, §3
substance,measurement,setting,value
[ZnCl2(terpy^t^Bu)] [C1],Induction of apoptotic cell death,CT26 cells; Annexin V FITC/PI,entered both early and late stages of apoptosis
same,"Quadrant number upper left of PI / Annexin V plot (necrotic, AnnV−PI+)","CT26 cells; representative FACS plot, untreated 1.55",underwent necrosis
same,"Selectivity Index (IC50 mMSC/IC50), CT26",[1],1.3
same,IC50,"[1]; read-out: IC50 ± SEM, CT26",44.7 ± 58.7 µM
same,"Cytotoxic effect on mMSC compared to cancer cells (HCT116, SW480, CT26)",[2]; concentrations 1.17 to 18.75 μM,lower cytotoxic effect
same,IC50,"[2]; non-cancerous cells, read-out: IC50 ± SEM, mMSCs",56.7 ± 6.93 µM
same,"Stern–Volmer constant Ksv, CT-DNA",CT-DNA,2.2 ± 0.1 10^4 M^–1
same,"Selectivity Index (IC50 mMSC/IC50), SW480",[3],0.5
same,IC50,"[3]; read-out: IC50 ± SEM, SW480",106 ± 126 µM
